Test results taken from US20200390899A1, “AMINOBENZAZEPINE COMPOUNDS, IMMUNOCONJUGATES, AND USES THEREOF” (BOLT BIOTHERAPEUTICS, INC., priority 2019, published 2020).
Where two headings read alike, the source gives them in different places.

Legend:
human TLR8 = target: T1, human TLR8 (Homo sapiens, UniProt Q9NR97); test: HEK293 NFKB reporter assay, human TLR8; type: cell-based
T1 construct: host or cells: HEK293 reporter cells
T1 sequence (Q9NR97 27-1041): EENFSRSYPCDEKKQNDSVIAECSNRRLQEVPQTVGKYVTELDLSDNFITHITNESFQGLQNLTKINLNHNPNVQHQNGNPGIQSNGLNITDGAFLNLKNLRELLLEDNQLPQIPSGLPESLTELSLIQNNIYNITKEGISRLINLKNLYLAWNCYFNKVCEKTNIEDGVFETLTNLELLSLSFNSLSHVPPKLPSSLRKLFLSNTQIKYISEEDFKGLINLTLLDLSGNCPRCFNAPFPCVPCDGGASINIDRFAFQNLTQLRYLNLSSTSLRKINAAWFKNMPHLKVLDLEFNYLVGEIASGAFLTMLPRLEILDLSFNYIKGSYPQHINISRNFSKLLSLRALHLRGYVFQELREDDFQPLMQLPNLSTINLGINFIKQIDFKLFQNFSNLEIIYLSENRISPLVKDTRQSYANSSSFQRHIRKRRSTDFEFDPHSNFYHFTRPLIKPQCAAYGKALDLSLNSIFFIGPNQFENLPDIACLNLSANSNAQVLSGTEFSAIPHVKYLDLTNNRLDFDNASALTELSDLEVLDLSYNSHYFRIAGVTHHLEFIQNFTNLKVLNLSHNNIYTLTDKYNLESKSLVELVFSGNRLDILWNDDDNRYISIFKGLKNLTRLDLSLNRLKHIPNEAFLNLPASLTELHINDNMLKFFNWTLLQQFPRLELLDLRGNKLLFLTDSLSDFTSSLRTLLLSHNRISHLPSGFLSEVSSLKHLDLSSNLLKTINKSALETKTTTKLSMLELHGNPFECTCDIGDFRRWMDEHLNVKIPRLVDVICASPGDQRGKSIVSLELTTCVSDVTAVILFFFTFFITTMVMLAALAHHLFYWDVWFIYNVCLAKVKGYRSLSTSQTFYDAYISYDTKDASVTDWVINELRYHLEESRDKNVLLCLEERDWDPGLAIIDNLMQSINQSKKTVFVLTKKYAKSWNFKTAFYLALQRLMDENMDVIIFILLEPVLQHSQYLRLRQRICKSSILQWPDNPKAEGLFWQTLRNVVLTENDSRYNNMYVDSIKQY
Procedure: (§1) Each compound was synthesized and purified by the methods in the Examples provided herein, characterized by mass spectrometry, and shown to have the mass indicated. Activity against HEK293 NFKB reporter cells expressing human TLR7 or human TLR8 was measured according to Example 68.
(§2) HEK293 reporter cells expressing human TLR7 or human TLR8 were purchased from Invivogen and vendor protocols were followed for cellular propagation and experimentation. Briefly, cells were grown to 80-85% confluence at 5% CO2 in DMEM supplemented with 10% FBS, Zeocin, and Blasticidin. Cells were then seeded in 96-well flat plates at 4×10^4cells/well with substrate containing HEK detection medium and immunostimulatory molecules. Activity was measured using a plate reader at 620-655 nm wavelength.

human TLR7 = target: T2, human TLR7 (Homo sapiens, UniProt Q9NYK1); test: HEK293 NFKB reporter assay, human TLR7; type: cell-based
T2 construct: host or cells: HEK293 reporter cells
T2 sequence (Q9NYK1 27-1049): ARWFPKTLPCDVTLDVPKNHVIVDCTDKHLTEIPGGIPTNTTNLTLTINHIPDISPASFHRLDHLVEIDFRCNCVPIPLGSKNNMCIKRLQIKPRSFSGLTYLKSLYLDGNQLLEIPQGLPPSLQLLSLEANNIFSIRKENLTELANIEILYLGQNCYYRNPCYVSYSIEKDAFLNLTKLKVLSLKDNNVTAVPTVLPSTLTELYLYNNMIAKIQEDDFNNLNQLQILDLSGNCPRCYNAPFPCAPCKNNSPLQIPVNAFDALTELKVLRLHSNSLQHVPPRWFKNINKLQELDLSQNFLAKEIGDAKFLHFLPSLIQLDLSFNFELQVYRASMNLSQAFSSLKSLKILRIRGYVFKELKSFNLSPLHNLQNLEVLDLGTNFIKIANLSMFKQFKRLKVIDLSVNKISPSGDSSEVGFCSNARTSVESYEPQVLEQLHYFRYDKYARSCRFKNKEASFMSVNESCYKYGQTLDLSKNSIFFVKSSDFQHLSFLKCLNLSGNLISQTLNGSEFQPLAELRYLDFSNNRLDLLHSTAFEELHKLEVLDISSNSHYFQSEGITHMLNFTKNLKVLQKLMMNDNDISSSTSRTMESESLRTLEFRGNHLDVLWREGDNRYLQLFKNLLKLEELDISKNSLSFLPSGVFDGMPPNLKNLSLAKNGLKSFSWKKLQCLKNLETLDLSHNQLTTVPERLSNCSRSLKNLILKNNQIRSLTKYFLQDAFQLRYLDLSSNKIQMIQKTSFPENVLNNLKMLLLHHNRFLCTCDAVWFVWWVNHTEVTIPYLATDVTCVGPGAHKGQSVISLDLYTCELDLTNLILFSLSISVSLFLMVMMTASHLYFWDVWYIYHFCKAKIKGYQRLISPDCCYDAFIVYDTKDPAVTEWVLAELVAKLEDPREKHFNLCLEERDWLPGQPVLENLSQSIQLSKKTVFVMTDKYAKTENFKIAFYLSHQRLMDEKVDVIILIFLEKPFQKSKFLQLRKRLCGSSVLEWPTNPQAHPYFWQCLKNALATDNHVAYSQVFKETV
Procedure: as §1, §2

[1] = Table 1a, HEK293 reporter cells expressing human TLR8, read-out: HEK293 hTLR8 EC50
[2] = Table 1a, HEK293 reporter cells expressing human TLR7, read-out: HEK293 hTLR7 EC50
[3] = Table 1b, HEK293 reporter cells expressing human TLR8, read-out: HEK293 hTLR8 EC50
[4] = Table 1b, HEK293 reporter cells expressing human TLR7, read-out: HEK293 hTLR7 EC50

SMILES	EC50 (human TLR8; [3])	EC50 (human TLR7; [4])	other results
CCCN(CCCNC(=O)OCC)C(=O)C1=Cc2ccc(-c3cccc(S(=O)(=O)N4CC(CO)C4)c3)cc2N=C(N)C1 [Bz-13, ethyl N-[3-[[2-amino-8-[3-[3-(hydroxymethyl)azetidin-1-yl]sulfonylphenyl]-3H-1-benzazepine-4-carbonyl]-propyl-amino]propyl]carbamate]			EC50 (human TLR8): 134 nM; EC50 (human TLR7): 1370 nM
CCCN(CCC)C(=O)C1=Cc2c(CCCCN)cc(-c3cccc(S(=O)(=O)N4CC(CO)C4)c3)cc2N=C(N)C1 [Bz-14, 2-Amino-6-(4-aminobutyl)-8-(3-((3-(hydroxymethyl)azetidin-1-yl)sulfonyl)phenyl)-N,N-dipropyl-3H-benzo[b]azepine-4-carboxamide]			EC50 (human TLR8; [1]): 1700 nM; EC50 (human TLR7; [2]): > 9000 nM
CCCN(CCC)C(=O)C1=Cc2ccc(-c3cccc(S(=O)(=O)N4CC(CN)C4)c3)cc2N=C(N)C1 [Bz-15, 2-amino-8-[3-[3-(aminomethyl)azetidin-1-yl]sulfonylphenyl]-N,N-dipropyl-3H-1-benzazepine-4-carboxamide]			EC50 (human TLR8; [1]): 103 nM; EC50 (human TLR7; [2]): > 9000 nM
CCCN(CCCNC(=O)OC(C)(C)C)C(=O)C1=Cc2ccc(C(=O)Nc3ccc(N4CCC(C(=O)NCCNC(C)=O)CC4)nc3)cc2N=C(N)C1 [Bz-16, tert-butyl (3-(8-((6-(4-((2-acetamidoethyl)carbamoyl)piperidin-1-yl)pyridin-3-yl)carbamoyl)-2-amino-N-propyl-3H-benzo[b]azepine-4-carboxamido)propyl)carbamate]			EC50 (human TLR8; [1]): 1050 nM; EC50 (human TLR7; [2]): > 9000 nM
CCCN(CCCN)C(=O)C1=Cc2ccc(-c3cccc(S(=O)(=O)N4CC(CO)C4)c3)cc2N=C(N)C1 [Bz-17, 2-amino-N-(3-aminopropyl)-8-[3-[3-(hydroxymethyl)azetidin-1-yl]sulfonylphenyl]-N-propyl-3H-1-benzazepine-4-carboxamide]	> 9000 nM	> 9000 nM	
CCCN(CCCOCCCN)C(=O)C1=Cc2ccc(-c3cccc(S(=O)(=O)N4CC(CO)C4)c3)cc2N=C(N)C1 [Bz-18, 2-amino-N-(3-(3-aminopropoxy)propyl)-8-(3-((3-(hydroxymethyl)azetidin-1-yl)sulfonyl)phenyl)-N-propyl-3H-benzo[b]azepine-4-carboxamide]	3400 nM	1990 nM	
CCCN(CCCNC(=O)CC(C)(C)C)C(=O)C1=Cc2ccc(-c3cccc(S(=O)(=O)N4CC(CO)C4)c3)cc2N=C(N)C1 [Bz-19, 2-amino-N-(3-(3,3-dimethylbutanamido)propyl)-8-(3-((3-(hydroxymethyl)azetidin-1-yl)sulfonyl)phenyl)-N-propyl-3H-benzo[b]azepine-4-carboxamide]	3170 nM	1070 nM	
CCCN(CCCCCN)C(=O)C1=Cc2ccc(-c3cccc(S(=O)(=O)N4CC(CO)C4)c3)cc2N=C(N)C1 [Bz-20, 2-amino-N-(5-aminopentyl)-8-(3-((3-(hydroxymethyl)azetidin-1-yl)sulfonyl)phenyl)-N-propyl-3H-benzo[b]azepine-4-carboxamide]	> 9000 nM	> 9000 nM	
CCCN(CCCOCCOCCN)C(=O)C1=Cc2ccc(-c3cccc(S(=O)(=O)N4CC(CO)C4)c3)cc2N=C(N)C1 [Bz-21, 2-amino-N-(3-(2-(2-aminoethoxy)ethoxy)propyl)-8-(3-((3-(hydroxymethyl)azetidin-1-yl)sulfonyl)phenyl)-N-propyl-3H-benzo[b]azepine-4-carboxamide]	> 9000 nM	> 9000 nM	
CCCN(C/C=C/CN)C(=O)C1=Cc2ccc(-c3cccc(S(=O)(=O)N4CC(CO)C4)c3)cc2N=C(N)C1 [Bz-22, 2-amino-N-[(E)-4-aminobut-2-enyl]-8-[3-[3-(hydroxymethyl)azetidin-1-yl]sulfonylphenyl]-N-propyl-3H-1-benzazepine-4-carboxamide]	> 9000 nM	> 9000 nM	
CCCN(CCCNc1ncccn1)C(=O)C1=Cc2ccc(-c3cccc(S(=O)(=O)N4CC(CO)C4)c3)cc2N=C(N)C1 [Bz-23, 2-amino-8-[3-[3-(hydroxymethyl)azetidin-1-yl]sulfonylphenyl]-N-propyl-N-[3-(pyrimidin-2-ylamino)propyl]-3H-1-benzazepine-4-carboxamide]	1160 nM	2430 nM	
CCCN(CCCCN)C(=O)C1=Cc2ccc(-c3cccc(S(=O)(=O)N4CC(CO)C4)c3)cc2N=C(N)C1 [Bz-24, 2-amino-N-(4-aminobutyl)-8-[3-[3-(hydroxymethyl)azetidin-1-yl]sulfonylphenyl]-N-propyl-3H-1-benzazepine-4-carboxamide]	> 9000 nM	> 9000 nM	
CCCN(CCc1ccc(OC)cc1)C(=O)C1=Cc2ccc(-c3cccc(S(=O)(=O)N4CC(CO)C4)c3)cc2N=C(N)C1 [Bz-25, 2-amino-8-[3-[3-(hydroxymethyl)azetidin-1-yl]sulfonylphenyl]-N-[2-(4-methoxyphenyl)ethyl]-N-propyl-3H-1-benzazepine-4-carboxamide]	1400 nM	> 9000 nM	
CCCN(CC#CCNC(=O)OC(C)(C)C)C(=O)C1=Cc2ccc(-c3cccc(S(=O)(=O)N4CC(CO)C4)c3)cc2N=C(N)C1 [Bz-26, tert-butyl N-[4-[[2-amino-8-[3-[3-(hydroxymethyl)azetidin-1-yl]sulfonylphenyl]-3H-1-benzazepine-4-carbonyl]-propyl-amino]but-2-ynyl]carbamate]	318 nM	> 9000 nM	
CCCN(Cc1ccc(CN)cc1)C(=O)C1=Cc2ccc(-c3cccc(S(=O)(=O)N4CC(CO)C4)c3)cc2N=C(N)C1 [Bz-27, 2-Amino-N-(4-(aminomethyl)benzyl)-8-(3-((3-(hydroxymethyl)azetidin-1-yl)sulfonyl)phenyl)-N-propyl-3H-benzo[b]azepine-4-carboxamide]	138 nM	> 9000 nM	
CCCN(CC#CCNC(=O)OC(C)(C)C)C(=O)C1=Cc2ccc(-c3cccc(S(=O)(=O)N4CC(CN(C)C)C4)c3)cc2N=C(N)C1 [Bz-28, tert-butyl N-[4-[[2-amino-8-[3-[3-[(dimethylamino)methyl]azetidin-1-yl]sulfonylphenyl]-3H-1-benzazepine-4-carbonyl]-propyl-amino]but-2-ynyl]carbamate]	42.8 nM	4250 nM	
CCCN(OCC)C(=O)C1=Cc2ccc(-c3cccc(S(=O)(=O)N4CC(CO)C4)c3)cc2N=C(N)C1 [Bz-29, 2-amino-N-ethoxy-8-[3-[3-(hydroxylmethyl)azetidin-1-yl]sulfonylphenyl]-N-propyl-3H-1-benzazepine-4-carboxamide]	32 nM	> 9000 nM	
